For series [1], the system named is RasNIH3T3. In words: Cellular activity, MTT cell growth assay, RasNIH3T3. It counts as cell-based. The following applies: 96 h, read-out: RasNIH3T3 (cellular data). A general note: Tetrazolium dyes change colour on reduction, which living cells bring about.
Series [2] addresses T1, Src recombinant enzyme, N-terminally His6 tagged full-length human protein (Homo sapiens, UniProt P12931).
T1 construct: Src recombinant enzyme was purchased as N-terminally His6 tagged full-length human protein; His6 (N); purchased
The series is described as follows: SRC kinase inhibition assay (AlphaScreen). It counts as biochemical. The following applies: 80 μM ATP, 90 minutes at 30 degree Celsius. As to the method: Protocol for SRC Kinase Inhibition Assay. Compounds of the invention were tested for in vitro activity in the following assay: A biotin labeled peptide was used as substrate (amino acid sequence: Biotin-[…]). Src recombinant enzyme was purchased as N-terminally His6 tagged full-length human protein. The 15 μL assay reactions were run in Greiner brand white 384-well low volume plates. […] Compounds were added in a volume of 100 nL from dilution series made up in DMSO, positive and negative control reactions receiving the same volume DMSO without compounds. The plates were sealed with adhesive seals and incubated for 90 minutes at 30 degree Celsius. The reactions were stopped with the detection reagents added at the same time. Product formation was quantified as photochemiluminescence between PerkinElmer AlphaScreenTM beads, using Streptavidin-coated donor and anti-phosphotyrosine (P-[…]) acceptor beads. […] Plates were incubated for 5 hours before being read on a PerkinElmer EnVisionTM plate reader in HTS AlphascreenTM mode. IC50 values were obtained by calculating percent inhibition (% I) for each reaction relative to controls on the same plate (% [SMILES] where CN/CP are the averages of the negative/positive reactions, respectively), then fitting the % I data vs. compound concentration [I] to % I=([…])))) where A is the lower asymptote, B is the upper asymptote, C is the IC50 value, and D is the slope factor.
(In Alpha technology, singlet oxygen from a donor bead excites a nearby acceptor bead.)

For series [3], the system named is LIM1215. In words: Cellular activity, MTT cell growth assay, LIM1215. It counts as cell-based. As to conditions: LIM1215, 96 h, read-out: LIM1215 (cellular data). The protocol:
(§1) A. Cells, Inhibitors and Incubation
(§2) 1. Cell Lines • LIM 1899 colon carcinoma derived epithelial cells were grown in RPMI+Adds^1+10% FCS. ^1 Additives for culture of LIM cell lines: 10 μM thioglycerol, 0.025 U/mL insulin, 1 μg/mL hydrocortisone
(§3) 2. Cell Plating in 96 Well Plate. • Assay medium: RPMI+Adds+5% FCS • Cells are trypsinized, washed once in assay medium and brought to the required concentration as described below: • Need 10^4 cells per well in 100 μL per well=10^5 per mL for plating • After washing, cells were resuspended in 5 mL and counted (1×T75 flask gives approx 2−3×10 eg^6 per mL). • Cells were then diluted to 10^5 cells/mL (need 10 mL minimum per plate). • Eg. Cell count in 5 mL is 25×10^5/mL • For 10^5/mL, dilute 1 mL to 25 mL • 100 μL per well cells were plated with multistepper pipette, over the whole plate. Plates were incubated overnight at 37° C.+5% CO2 incubator.
(§4) 3. Inhibitor Stocks • Inhibitors were dissolved in DMSO for 10 mM stocks. MW and amount of compound given was used to calculate the volume required for each. • 4× the highest concentration of the compound in the assay was calculated to prepare the working stocks. • eg 1st well final concentration in assay was 10 μM. • Therefore working stock was 40 μM • Stock solution is 10 mM→40 μM=4 μl in 1.0 mL assay medium for working stock.
(§5) 4. Plate Plan: • Rows A,B: Inhibitor 1 • Rows C,D: Inhibitor 2 • Rows E,F: Inhibitor 3 • Row G: RPMI+Adds+5% FCS (=maximum growth) • Row H: RPMI+Adds serum free (=minimum growth)
(§6) 5. Titration of Inhibitors • A 96 well plate was used to titrate the inhibitors for each assay plate: • 150 μL assay medium was added to each well of a 96 well plate. • 150 μL of Inhibitor 1 working stock was added wells A1 and B1. • Repeated with Inhibitor 2 to C1 and D1 • Repeated with Inhibitor 3 to E1 and F1 • Serial ½ dilutions were performed across the plate, rows A to F, left to right with 150 μL.
(§7) 6. Transfer Titrated Inhibitors to Cell Assay Plate: Final Volume 200 μl • Using a multichannel pipette, 100 μL was transferred from the corresponding wells of the titration plate to the cell assay plate, rows A to G. • Row H: medium was carefully removed from the cell wells with a 200 μL tip, and replaced with 200 μL serum free medium.
(§8) 7. Incubation • Plates were incubated for 4 days at 37° C. with 5% CO2.
(§9) B. Use of MTT to Measure Cell Growth
(§10) 1. MTT Preparation and Storage • MTT Sigma M-2128 5 g • Dissolved in PBS, at 5 mg/mL • 5 g bottle dissolved in 1 liter PBS (some impurities remain) • Filter sterilized and aliquoted in 50 mL tubes, stored at −20° C. • As needed, 50 mL tube was thawed and aliquoted in 5 mL tubes, re-stored at −20° C. • Stable at 4° C. for 1 month (unstable if left at 37° C. too long while thawing)
(§11) 2. MTT Solvent • a. 1M HCl: • Mixed 44.6 mL conc HCl (11.2M) in 500 mL DDW • b. Acidified isopropanol (Isopropanol with 0.04 N HCl): • Mixed 20 mL 1M HCl with 480 mL isopropanol (Propan-2-ol, iso-Propyl Alcohol)
(§12) 3. MTT Assay • After cell incubation (above): • Added 10 μL MTT to each well. • Incubated 4 hrs in 37° C. incubator. • Spun plates, 5 min, 1500 rpm. • Carefully flicked out medium into the sink, without disturbing the crystals. • Added 200 μL acidified isopropanol per well. • Placed on plate shaker, RT, speed 6.5, for 10 min-30 min. • Read OD of plates on Thermo Multiskan Ex, at 560/690 nm.
(§13) • Mosmann, T. • Rapid colorimetric assay for cellular growth and survival: application to proliferation and cytotoxic assays. Journal of Immunological Methods (1983), 65:55-63. Table with Examples of Cellular Data
(§14) The compounds in this invention display cellular activities against a range of tumour or transformed cell lines in particular colon cancer cell lines such as LIM1215, LIM2537 and LIM1899.

Series [4] has as its system LIM 1899 colon carcinoma derived epithelial cells. The series is described as follows: Cellular activity, MTT cell growth assay, LIM1899. The following applies: 96 h, 4 days incubation. It counts as cell-based. The protocol: as §1, §2, §3, §4, §5, §6, §7, §8, §9, §10, §11, §12, §13, §14
Series [5] has as its system LIM2537. The series is described as follows: Cellular activity, MTT cell growth assay, LIM2537. It counts as cell-based. The following applies: 96 h, 4 days incubation. The protocol:
as §1, §2, §3, §4, §5, §6, §7, §8, §9, §10, §11, §12, §13, §14

Series [6] concerns SFKs (Src family kinases). The following applies: reported; no discrimination between family members; cited from earlier work.
A short description of series [7]: Solubility. It counts as physicochemical.

Where two headings read alike, the source gives them in different places.

T1 sequence (P12931 whole entry): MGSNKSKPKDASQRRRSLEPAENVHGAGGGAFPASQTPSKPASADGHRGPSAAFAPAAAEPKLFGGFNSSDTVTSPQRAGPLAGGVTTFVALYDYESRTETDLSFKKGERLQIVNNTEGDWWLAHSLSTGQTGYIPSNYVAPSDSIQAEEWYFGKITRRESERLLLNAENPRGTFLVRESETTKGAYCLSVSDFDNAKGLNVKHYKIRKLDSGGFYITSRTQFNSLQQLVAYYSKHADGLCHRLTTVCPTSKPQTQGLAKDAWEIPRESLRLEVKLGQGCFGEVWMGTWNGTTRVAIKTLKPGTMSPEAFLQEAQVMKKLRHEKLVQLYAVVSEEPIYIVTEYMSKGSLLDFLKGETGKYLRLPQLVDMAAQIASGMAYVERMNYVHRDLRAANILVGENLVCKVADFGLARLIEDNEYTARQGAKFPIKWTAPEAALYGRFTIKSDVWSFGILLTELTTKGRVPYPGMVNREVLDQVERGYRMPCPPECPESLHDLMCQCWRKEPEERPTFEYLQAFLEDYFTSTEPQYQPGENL

As to `Cc1ccc(-c2nn(C(C)(C)CNC(=O)c3cccnc3)c3ncnc(N)c23)cc1` [Example 60], the IC50 in series [1] (MTT, 4 days incubation) is 17000 nM; in series [2], 100 to 1000 nM; in series [3] (MTT, 4 days incubation), 1900 nM.

For the molecule `Cc1ccc(-c2nn(C(C)(C)CNC(=O)c3ccncn3)c3ncnc(N)c23)cc1` [Example 62], the IC50 in series [1] (MTT, 4 days incubation) was 350 nM; in series [2], 1 to 100 nM; in series [3] (MTT, 4 days incubation), 250 nM.

Consider `Cc1nc(Nc2ncc(C(=O)Nc3c(C)cccc3Cl)s2)cc(N2CCN(CCO)CC2)n1` [Dasatinib, reference compound], for which the IC50 was 1200 nM in series [4]; 9000 to 12000 nM in series [1] (MTT, 4 days incubation); 2000 nM in series [3] (MTT, 4 days incubation).

As for `Cc1ccc(-c2nn(C(C)(C)CNC(=O)c3ccccn3)c3ncnc(N)c23)cc1` [Example 12], the IC50 is 170 nM in series [5]; 170 nM in series [4]; 110 nM in series [1] (MTT, 4 days incubation); 1 to 100 nM in series [2]; 170 nM in series [3] (MTT, 4 days incubation).

Turning to `Cc1ccc(-c2nn(C(C)(C)CNC(=O)c3cnccn3)c3ncnc(N)c23)cc1` [Example 56], the IC50 is 1620 nM in series [1] (MTT, 4 days incubation); 1 to 100 nM in series [2]; 400 nM in series [3] (MTT, 4 days incubation).

Take `Cc1ccc(-c2nn(C(C)(C)CNC(=N)c3ccccc3)c3ncnc(N)c23)cc1` [Example 76]: the IC50 in series [5] was more than 10000 nM; in series [4] it was 19000 nM; in series [2], 1000 to 10000 nM.

As for `CC(C)(C)n1nc(-c2ccc(Cl)cc2)c2c(N)ncnc21` [PP2], the “inhibition of SFKs” value in series [6] is “potent inhibitors”. The solubility entry in series [7] was “poorly soluble”.

Take `COc1ccnc(C(=O)NCC(C)(C)n2nc(-c3ccc(C)cc3)c3c(N)ncnc32)c1` [Example 61]: the IC50 in series [4] was 1600 nM; in series [1] (MTT, 4 days incubation), 1830 nM; in series [2] it was 1 to 100 nM; in series [3] (MTT, 4 days incubation), 800 nM.

In the case of `Cc1ccc(-c2nn(C(C)(C)CNC(=O)c3cscn3)c3ncnc(N)c23)cc1` [Example 64], the IC50 was 1100 nM in series [5]; 880 nM in series [4]; 630 nM in series [1] (MTT, 4 days incubation); 1 to 100 nM in series [2].

As to `CC(C)(CNC(=O)c1ccccc1)n1nc(-c2ccc(Cl)cc2)c2c(N)ncnc21` [74 (compound 74F)], the IC50 in series [5] is more than 10000 nM; in series [4], more than 20000 nM.

As for `Cc1ccc(-c2nn(C(C)(C)C)c3ncnc(N)c23)cc1` [PP1, reference compound], the “inhibition of SFKs” value in series [6] is reported as “potent inhibitors”. Further, the solubility result in series [7] is reported as “poorly soluble”. For the same molecule, the IC50 was 9250 nM in series [1] and 250 nM in series [3].

Regarding `CC(C)(CNC(=O)c1ccccn1)n1nc(-c2ccc(Cl)cc2)c2c(N)ncnc21` [Example 75], the IC50 is 1600 nM in series [5], 900 nM in series [4] and 1 to 100 nM in series [2].

As for `Cc1ccc(-c2nn(C(C)(C)CNS(=O)(=O)c3ccccc3)c3ncnc(N)c23)cc1` [Example 59], the IC50 is more than 20000 nM in series [1] (MTT, 4 days incubation); 100 to 1000 nM in series [2]; 3100 nM in series [3] (MTT, 4 days incubation).

Consider `Cc1ccc(-c2nn(C(C)(C)CNC(=O)c3cccc(C)n3)c3ncnc(N)c23)cc1` [Example 73], for which the figures for the IC50 in series [4] and in series [2] were 1100 nM and 1000 to 10000 nM, respectively.

Regarding `Cc1ccc(-c2nn(C(C)(C)CNC(=O)c3cc(Br)ccn3)c3ncnc(N)c23)cc1` [Example 42], the IC50 was 1900 nM in series [1] (MTT, 4 days incubation); 1 to 100 nM in series [2]; 900 nM in series [3] (MTT, 4 days incubation).

Take `Cc1ccc(-c2nn(C(C)(C)CNC(=O)c3ncccc3C)c3ncnc(N)c23)cc1` [Example 71]: the IC50 is 3100 nM in series [4] and more than 10000 nM in series [2].

As to `Cc1ccc(-c2nn(C(C)(C)CNC(=O)c3cc(C)ccn3)c3ncnc(N)c23)cc1` [Example 65], the IC50 was 900 nM in series [4]; 1670 nM in series [1] (MTT, 4 days incubation); 100 to 1000 nM in series [2]; 960 nM in series [3] (MTT, 4 days incubation).

With `Cc1ccc(-c2nn(C(C)(C)CNC(=N)c3ccccn3)c3ncnc(N)c23)cc1` [Example 77], the IC50 in series [5] is more than 10000 nM; in series [2], 1 to 100 nM.

Consider `Cc1ccc(-c2nn(C(C)(C)CNC(=O)c3cncnc3)c3ncnc(N)c23)cc1` [Example 57], for which the IC50 in series [1] (MTT, 4 days incubation) was more than 20000 nM; in series [2], 1000 to 10000 nM; in series [3] (MTT, 4 days incubation) it was 1600 nM.

As for `Cc1ccc(-c2nn(C(C)(C)CNC(=O)c3cc(-c4ccccc4)ccn3)c3ncnc(N)c23)cc1` [Example 66], the IC50 in series [4] is 310 nM; in series [1] (MTT, 4 days incubation) it was 500 nM; in series [2], 1 to 100 nM; in series [3] (MTT, 4 days incubation), 520 nM.

Regarding `Cc1ccc(-c2nn(C(C)(C)CNC(=O)c3ccccc3)c3ncnc(N)c23)cc1` [Example 11], the IC50 in series [4] was 1700 nM; in series [2], 100 to 1000 nM.

Consider `Cc1ccc(-c2nn(C(C)(C)CNC(=O)c3cc(Cl)ccn3)c3ncnc(N)c23)cc1` [Example 63], for which the IC50 in series [4] was 1700 nM; in series [1] (MTT, 4 days incubation), 6290 nM; in series [2] it was 100 to 1000 nM; in series [3] (MTT, 4 days incubation) it was 2600 nM.

The record behind these values is patent US8962830B2, “Protein kinase inhibitors and methods of treatment” (The Walter and Eliza Hall Institute of Medical Research, priority 2010, dated 2015).
